# Assay results published in article PMC8658016, “Identification of New Compounds with Anticonvulsant and Antinociceptive Properties in a Group of 3-substituted (2,5-dioxo-pyrrolidin-1-yl)(phenyl)-Acetamides” (International Journal of Molecular Sciences, 2021).
# Legend:
# [1] = system: mice; assay: Maximal electroshock seizure (MES) test; format: in vivo, mouse; conditions: mice i.p.
# [2] = system: rats; assay: Carrageenan-induced mechanical hyperalgesia; format: in vivo, rat; conditions: 80 mg/kg
# From the text: (§1) To test the anti-inflammatory activity and the potential to attenuate inflammatory pain, we tested compound 14 in the model of carrageenan-induced aseptic inflammation. In this model, the subplantar injection of carrageenan induced an edema, mechanical, and thermal hyperalgesia. […] In our opinion, the most surprising and interesting was the long-lasting anti-edematous effect. It may result from the pharmacokinetic properties of compound 14, but also from its unique mechanism. Since inflammation is one of the critical components of neuropathy, the anti-inflammatory activity of compound 14 may be a valuable and distinctive property from classical ASDs used to treat neuropathic pain [33]. […] The pain threshold reached 87.3%, 90.9%, and 89.7% of its initial value 3, 6, and 24 h after carrageenan injection, respectively. […] The initial latency for compound 14-treated animals was 8.95 ± 0.4 s. The administration of compound 14 changed the values to 127.0%, 102.0%, 79.8%, 83.8%, and 164.4% of the initial value 1, 2, 3, 6-, and 24-h following carrageenan injection, respectively.
# The experiments were conducted on adult male Albino Swiss mice (CD-1, 18–25 g) and male Wistar rats (Krf:(WI) WU), 180–250 g) as described previously. The minimum number of animals used needed to obtain definite and normally distributed results with the utilized test. Behavioral measures were scored by trained observers, which were blind to experimental conditions. The following devices were used in the experiments: Analgesy Meter (37215, Ugo Basile), Plantar Test Apparatus (EFV5, Commat Ltd., Turkey), Plethysmometer (Plethysmometer 7140, Ugo Basile), Electronic von Frey unit (BIOSEB, France). […]
# Figure 8 Effect of compound 14 on carrageenan-induced oedema (A), mechanical hyperalgesia (B), and thermal hyperalgesia (C), developed after subplantar injection of 1% carrageenan in rats. Data are expressed as means ± S.E.M. for 6 animals; 0—the initial value considered as the paw volume (A) or nociceptive reaction (B,C) before carrageenan administration. […]
# [3] = system: mice; assay: 6 Hz (44 mA) seizure test, model of drug-resistant epilepsy; format: in vivo; conditions: Mus musculus, ip; mice i.p.; 95% confidence interval in parentheses
# [4] = system: mice; assay: Subcutaneous pentylenetetrazole (scPTZ) seizure test; format: in vivo, mouse; conditions: mice i.p.
# [5] = system: mice; assay: Oxaliplatin-induced peripheral neuropathy, tactile allodynia (von Frey); format: in vivo, mouse; conditions: for pain sensitivity threshold (von Frey), early phase / pain threshold as % of the baseline value, early phase: 3 h after oxaliplatin; for pain threshold (von Frey), late phase / pain threshold as % of the baseline value, late phase: 7 days after oxaliplatin
# From the text: To investigate the analgesic activity of compound 14 in neuropathic pain, we used the OXPT-induced peripheral neuropathy model. OXPT directly affects neurons, which results in the upregulation of TRPM8 and TRPA1 and the downregulation of Kv4.3 neuronal channels. Moreover, OXPT forms adduct with mitochondrial DNA and, in this way, change the expression of membrane-associated protein such as channels. All these effects finally lead to peripheral and central sensitization. The neuropathy manifests as the decrease in the pain threshold and can be observed in hours or in days after OXPT administration, which is called the early or late phase of neuropathic pain, respectively. We tested the influence of compound 14 on tactile allodynia using the von Frey method 3 h and 7 days after the induction of neuropathy. In the early phase, we observed a significant decrease in the value of mean force that caused a paw withdrawal reaction (1.84 ± 0.05 g) (60.9% of the baseline) compared to non-treated animals (3.02 ± 0.07 g) (the baseline). In the late phase, the pain threshold was 1.97 ± 0.07 (65.2% of the baseline). The observed tactile allodynia was attenuated by compound 14, which elevated the pain sensitivity threshold in the early phase in a dose-dependent manner. (Figure 7) (2.61 ± 0.08 g, 2.94 ± 0.04 g, and 3.05 ± 0.08 g at the dose of 40 mg/kg, 60 mg/kg, and 80 mg/kg, respectively, which corresponded to 86.4%, 97.3%, and 100.9% of the baseline value). In the late phase, the pain threshold values were 2.45 ± 0.06 g, 2.88 ± 0.04 g, and 2.98 ± 0.06 g, which corresponded to 81.1%, 95.3%, and 98.6% of the baseline value.
# (§2) The experiments were conducted on adult male Albino Swiss mice (CD-1, 18–25 g) and male Wistar rats (Krf:(WI) WU), 180–250 g) as described previously. The minimum number of animals used needed to obtain definite and normally distributed results with the utilized test. Behavioral measures were scored by trained observers, which were blind to experimental conditions. The following devices were used in the experiments: Analgesy Meter (37215, Ugo Basile), Plantar Test Apparatus (EFV5, Commat Ltd., Turkey), Plethysmometer (Plethysmometer 7140, Ugo Basile), Electronic von Frey unit (BIOSEB, France). All procedures were performed according to the European Union Directive of 22 September 2010 (2010/63/EU) and approved by the Local Ethics Committee for Experiments on Animals in Krakow, Poland (resolution no. 105/2016).
# Figure 7 Antiallodynic effects of compound 14 in the tactile allodynia evaluated in the von Frey test in oxaliplatin-induced peripheral neuropathy. Statistical analysis: repeated measures analysis of variance (ANOVA), followed by Dunnett’s post hoc comparison: *** p < 0.001, **** p < 0.0001 (GraphPad Prism 8.0.1). Results obtained before the treatment with oxaliplatin (the gray bar) and after the treatment with oxaliplatin and the compound (post compound 14, the red bars) were compared to the results obtained after the treatment with oxaliplatin and before the administration of the compound (pre compound 14; the white bars).
# [6] = system: rats; assay: Carrageenan-induced thermal hyperalgesia (radiant heat); format: in vivo, rat; conditions: 80 mg/kg
# From the text: as §1, §2
# Figure 8 Effect of compound 14 on carrageenan-induced oedema (A), mechanical hyperalgesia (B), and thermal hyperalgesia (C), developed after subplantar injection of 1% carrageenan in rats. Data are expressed as means ± S.E.M. for 6 animals; 0—the initial value considered as the paw volume (A) or nociceptive reaction (B,C) before carrageenan administration. Statistical significance compared to vehicle-treated animals (control): * p < 0.05, ** p < 0.01, *** p < 0.001, **** p < 0.0001. Statistical analysis: two-way ANOVA post hoc Bonferroni test. Statistical significance in different time points of control group: ^# p < 0.05, ^## p < 0.01, ^### p < 0.001. Statistical analysis: one-way ANOVA, followed by Dunnett’s multiple comparison test (GraphPad Prism 8.0.1).
# [7] = in vivo; conditions: male, CD-1, mouse, ip
# [8] = system: TTX-sensitive Na+ channel; assay: Radioligand binding, TTX-sensitive Na+ channel; conditions: rat cerebral cortex
# [9] = molecular target: T1, TRPV1 (VR1) (h) (Homo sapiens, UniProt Q8NER1); assay: TRPV1 (VR1) functional assay, antagonist effect; format: cell-based; conditions: HEK293, human recombinant HEK-293 cells, read-out: % Inhibition of Control Agonist Response, TRPV1 (VR1) (h) (antagonist effect)
# T1 construct: Cerep Laboratories / Eurofins Panlabs (contract assay)
# [10] = Mus musculus, ip, 95% confidence interval in parentheses
# T1 sequence (Q8NER1 whole entry): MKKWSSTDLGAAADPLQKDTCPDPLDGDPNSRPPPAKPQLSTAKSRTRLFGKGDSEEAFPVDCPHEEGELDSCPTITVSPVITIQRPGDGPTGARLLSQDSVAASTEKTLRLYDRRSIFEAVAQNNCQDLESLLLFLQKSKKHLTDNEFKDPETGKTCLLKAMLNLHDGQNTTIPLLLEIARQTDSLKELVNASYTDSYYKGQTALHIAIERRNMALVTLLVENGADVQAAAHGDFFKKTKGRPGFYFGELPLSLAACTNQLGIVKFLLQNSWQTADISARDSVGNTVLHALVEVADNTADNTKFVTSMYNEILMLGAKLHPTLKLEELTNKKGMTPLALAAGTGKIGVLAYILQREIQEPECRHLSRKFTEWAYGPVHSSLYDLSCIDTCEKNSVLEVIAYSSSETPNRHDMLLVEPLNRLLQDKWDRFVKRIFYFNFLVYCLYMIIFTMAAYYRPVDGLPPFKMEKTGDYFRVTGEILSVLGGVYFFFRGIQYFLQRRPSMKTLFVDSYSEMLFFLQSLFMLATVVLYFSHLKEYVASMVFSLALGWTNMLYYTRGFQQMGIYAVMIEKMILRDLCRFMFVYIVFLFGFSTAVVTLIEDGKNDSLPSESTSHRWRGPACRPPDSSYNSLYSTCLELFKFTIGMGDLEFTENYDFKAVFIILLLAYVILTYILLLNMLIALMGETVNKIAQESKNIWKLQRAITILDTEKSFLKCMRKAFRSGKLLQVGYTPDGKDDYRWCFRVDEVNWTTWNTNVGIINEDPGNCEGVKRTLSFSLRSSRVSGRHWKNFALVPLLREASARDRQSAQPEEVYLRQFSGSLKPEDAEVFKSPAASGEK
compound,measurement,setting,value
"CN(C)C1CC(=O)N(C(C(=O)N2CCN(c3cccc(C(F)(F)F)c3)CC2)c2ccccc2)C1=O.Cl (centres unmarked) [Compound 14, 3-(Dimethylamino)-1-(2-oxo-1-phenyl-2-(4-(3-(trifluoromethyl)phenyl)-piperazin-1-yl)ethyl)pyrrolidine-2,5-dione hydrochloride]",ED50,[1]; [10],49.6 mg/kg
same,MES screening: number of mice protected / number of mice tested,"[1]; 100 mg/kg, 0.5 h",4/4
same,protection in the MES test,"[1]; 100 mg/kg, 0.5 h",100%
same,"withdrawal threshold, % of the initial reaction (mechanical hyperalgesia)",[2]; 3 h after carrageenan,113.3%
same,"withdrawal threshold, % of the initial reaction (mechanical hyperalgesia)",[2]; 6 h after carrageenan,110.1%
same,"withdrawal threshold, % of the initial reaction (mechanical hyperalgesia)",[2]; 24 h after carrageenan,111.4%
same,ED50,[3],63.2 mg/kg
same,ED50,[4]; [10],67.4 mg/kg
same,scPTZ screening: number of mice protected / number of mice tested,"[4]; 100 mg/kg, 0.5 h",2/4
same,"pain sensitivity threshold (von Frey), early phase",[5]; 40 mg/kg,2.61 ± 0.08 g
same,"pain threshold as % of the baseline value, early phase",[5]; 40 mg/kg,86.4%
same,"pain threshold (von Frey), late phase",[5]; 40 mg/kg,2.45 ± 0.06 g
same,"pain threshold as % of the baseline value, late phase",[5]; 40 mg/kg,81.1%
same,"pain sensitivity threshold (von Frey), early phase",[5]; 60 mg/kg,2.94 ± 0.04 g
same,"pain threshold as % of the baseline value, early phase",[5]; 60 mg/kg,97.3%
same,"pain threshold (von Frey), late phase",[5]; 60 mg/kg,2.88 ± 0.04 g
same,"pain threshold as % of the baseline value, late phase",[5]; 60 mg/kg,95.3%
same,"pain sensitivity threshold (von Frey), early phase",[5]; 80 mg/kg,3.05 ± 0.08 g
same,"pain threshold as % of the baseline value, early phase",[5]; 80 mg/kg,100.9%
same,"pain threshold (von Frey), late phase",[5]; 80 mg/kg,2.98 ± 0.06 g
same,"pain threshold as % of the baseline value, late phase",[5]; 80 mg/kg,98.6%
same,"latency of nociceptive response to radiant heat, % of the initial value",[6]; 1 h after carrageenan,127.0%
same,"latency of nociceptive response to radiant heat, % of the initial value",[6]; 2 h after carrageenan,102.0%
same,"latency of nociceptive response to radiant heat, % of the initial value",[6]; 3 h after carrageenan,79.8%
same,"latency of nociceptive response to radiant heat, % of the initial value",[6]; 6 h after carrageenan,83.8%
same,"latency of nociceptive response to radiant heat, % of the initial value",[6]; 24 h after carrageenan,164.4%
same,TD50,[7],169 mg/kg
same,"% Inhibition of Control-Specific Binding, TTX-sensitive Na+ channel",[8]; 10 µM,31.0%
same,"% Inhibition of Control-Specific Binding, TTX-sensitive Na+ channel",[8]; 50 µM,90.3%
same,melting point,,157.8 to 159.2 °C
same,inhibition at 10 µM,[9]; 10 µM,17.3%
same,inhibition at 50 µM,[9]; 50 µM,88.8%
